Assay results published in paper PMC9747611 (Hypertension Research, 2022).
“Also recorded” adds a separate entry of the source.

How the values were obtained:
Type in all cases: in vivo, human
[1] = Plasma electrolytes and renal function (pharmacodynamics)
Protocol: (§1) Plasma PD measures included concentrations of aldosterone, 18-hydroxycorticosterone, corticosterone, 11-deoxycorticosterone, cortisol (free and total), 11-deoxycortisol, ACTH, sodium, chloride, and potassium. AUCs were calculated using a noncompartmental analysis and the linear trapezoidal/linear interpolation method. Urine PD measures included concentrations of aldosterone, cortisol (free and total), tetrahydroaldosterone, sodium, chloride, potassium, creatinine, and phosphorus. Other PD measures were seated, orthostatic, and positional changes in vital signs, as well as changes in body weight and BMI. Safety assessments involved adverse events, physical examinations, ECGs, orthostatic vital signs, and clinical laboratory evaluations.

[2] = Safety: adverse events, ECG, vital signs
Protocol: as §1
Subjects who received placebo were pooled into 2 treatment groups: placebo with low-salt diet and placebo with normal-salt diet. Descriptive statistics were calculated for PK, PD, and safety measures. […] Data are presented as change from baseline in least squares mean (90% CI) AUC0-12h of plasma aldosterone on days 1 and 10. The results of the exploratory dose proportionality power model were assessed using the Smith criteria (0.9031, 1.0969) and the less stringent Hummel criteria (0.6990, 1.3010).

[3] = test system: plasma cortisol; experiment: Plasma and urine cortisol and 11-deoxycortisol (pharmacodynamics, with ACTH challenge in low-salt cohorts)
Protocol: Cohorts 1 and 2 also underwent an ACTH (Cortrosyn^TM) challenge at baseline (day −1), 1 h after the first dose of study drug on day 1, and 1 h after the final dose of study drug on day 10. This was done to increase aldosterone and cortisol levels to more thoroughly evaluate the specificity of baxdrostat for targeting aldosterone synthase. The ACTH challenge consisted of an intravenous injection of 0.25 mg Cortrosyn^TM administered over 2 min after an overnight fast.
Plasma and urine samples were analyzed to measure concentrations of baxdrostat and its primary metabolite (CIN-107-M), aldosterone and its precursors, cortisol and its precursor, and ACTH using a validated liquid chromatography tandem mass spectrometry method (LC-MS/MS). The quantifiable ranges for both baxdrostat and its metabolite CIN-107-M in plasma and urine were 0.05 to 50 ng/mL (low range) and 5 to 2500 ng/mL (high range), using baxdrostat-d5 and CIN-107-M-d3, respectively, as the internal standards. Plasma samples were extracted by protein precipitation with methanol, followed by analysis by LC-MS/MS with electrospray ionization in positive mode and multiple reaction monitoring. […]
Plasma PD measures included concentrations of aldosterone, 18-hydroxycorticosterone, corticosterone, 11-deoxycorticosterone, cortisol (free and total), 11-deoxycortisol, ACTH, sodium, chloride, and potassium. AUCs were calculated using a noncompartmental analysis and the linear trapezoidal/linear interpolation method. […]
Subjects who received placebo were pooled into 2 treatment groups: placebo with low-salt diet and placebo with normal-salt diet. Descriptive statistics were calculated for PK, PD, and safety measures. […] The results of the exploratory dose proportionality power model were assessed using the Smith criteria (0.9031, 1.0969) and the less stringent Hummel criteria (0.6990, 1.3010).

[4] = 0.5-5.0 mg once daily for 10 days
[5] = 0.5 mg once daily 10 days, normal-salt diet, n = 9
[6] = 1.5 mg once daily 10 days, normal-salt diet, n = 9
[7] = 2.5 mg once daily 10 days, low-salt diet, n = 9
[8] = 2.5 mg once daily 10 days, normal-salt diet, n = 6
[9] = 5.0 mg once daily 10 days, low-salt diet, n = 9
[10] = also with ACTH challenge in low-salt diet groups

CCC(=O)N[C@@H]1CCCc2c(-c3ccc4c(c3)CCC(=O)N4C)cncc21 [baxdrostat]
change in plasma potassium levels [1, 4]: increases
change in plasma sodium levels [1, 4]: mild dose-dependent decreases
reduction in glomerular filtration rate ([1]; once daily for 10 days): < 15%
Abdominal pain [2, 5]: 0 (0.0) n (%)
Anxiety [2, 5]: 0 (0.0) n (%)
Any AE [2, 5]: 1 (11.1) n (%)
Any TEAE [2, 5]: 1 (11.1) n (%)
Any TEAE leading to death [2, 5]: 0 (0.0) n (%)
Any TEAE leading to discontinuation [2, 5]: 0 (0.0) n (%)
Any drug-related treatment-emergent SAE [2, 5]: 0 (0.0) n (%)
Any treatment-emergent SAE [2, 5]: 0 (0.0) n (%)
Back pain [2, 5]: 0 (0.0) n (%)
Constipation [2, 5]: 0 (0.0) n (%)
Dizziness [2, 5]: 0 (0.0) n (%)
Dizziness postural [2, 5]: 0 (0.0) n (%)
Dry throat [2, 5]: 0 (0.0) n (%)
Dysphonia [2, 5]: 0 (0.0) n (%)
Eye irritation [2, 5]: 0 (0.0) n (%)
Headache [2, 5]: 1 (11.1) n (%)
Nausea [2, 5]: 0 (0.0) n (%)
Palpitations [2, 5]: 0 (0.0) n (%)
Presyncope [2, 5]: 0 (0.0) n (%)
Rhinitis [2, 5]: 0 (0.0) n (%)
Ventricular tachycardia [2, 5]: 0 (0.0) n (%)
Viral infection [2, 5]: 0 (0.0) n (%)
Abdominal pain [2, 6]: 0 (0.0) n (%)
Anxiety [2, 6]: 0 (0.0) n (%)
Any AE [2, 6]: 1 (11.1) n (%)
Any TEAE [2, 6]: 1 (11.1) n (%)
Any TEAE leading to death [2, 6]: 0 (0.0) n (%)
Any TEAE leading to discontinuation [2, 6]: 0 (0.0) n (%)
Any drug-related treatment-emergent SAE [2, 6]: 0 (0.0) n (%)
Any treatment-emergent SAE [2, 6]: 0 (0.0) n (%)
Back pain [2, 6]: 0 (0.0) n (%)
Constipation [2, 6]: 1 (11.1) n (%)
Dizziness [2, 6]: 0 (0.0) n (%)
Dizziness postural [2, 6]: 0 (0.0) n (%)
Dry throat [2, 6]: 0 (0.0) n (%)
Dysphonia [2, 6]: 0 (0.0) n (%)
Eye irritation [2, 6]: 0 (0.0) n (%)
Headache [2, 6]: 0 (0.0) n (%)
Nausea [2, 6]: 0 (0.0) n (%)
Palpitations [2, 6]: 0 (0.0) n (%)
Presyncope [2, 6]: 0 (0.0) n (%)
Rhinitis [2, 6]: 0 (0.0) n (%)
Ventricular tachycardia [2, 6]: 0 (0.0) n (%)
Viral infection [2, 6]: 0 (0.0) n (%)
Abdominal pain [2, 7]: 0 (0.0) n (%)
Anxiety [2, 7]: 0 (0.0) n (%)
Any AE [2, 7]: 3 (33.3) n (%)
Any TEAE [2, 7]: 3 (33.3) n (%)
Any TEAE leading to death [2, 7]: 0 (0.0) n (%)
Any TEAE leading to discontinuation [2, 7]: 0 (0.0) n (%)
Any drug-related treatment-emergent SAE [2, 7]: 0 (0.0) n (%)
Any treatment-emergent SAE [2, 7]: 0 (0.0) n (%)
Back pain [2, 7]: 0 (0.0) n (%)
Constipation [2, 7]: 0 (0.0) n (%)
Dizziness [2, 7]: 0 (0.0) n (%)
Dizziness postural [2, 7]: 1 (11.1) n (%)
Dry throat [2, 7]: 0 (0.0) n (%)
Dysphonia [2, 7]: 0 (0.0) n (%)
Eye irritation [2, 7]: 0 (0.0) n (%)
Headache [2, 7]: 1 (11.1) n (%)
Nausea [2, 7]: 0 (0.0) n (%)
Palpitations [2, 7]: 0 (0.0) n (%)
Presyncope [2, 7]: 1 (11.1) n (%)
Rhinitis [2, 7]: 0 (0.0) n (%)
Ventricular tachycardia [2, 7]: 0 (0.0) n (%)
Viral infection [2, 7]: 1 (11.1) n (%)
Abdominal pain [2, 8]: 0 (0.0) n (%)
Anxiety [2, 8]: 1 (16.7) n (%)
Any AE [2, 8]: 3 (50.0) n (%)
Any TEAE [2, 8]: 3 (50.0) n (%)
Any TEAE leading to death [2, 8]: 0 (0.0) n (%)
Any TEAE leading to discontinuation [2, 8]: 0 (0.0) n (%)
Any drug-related treatment-emergent SAE [2, 8]: 0 (0.0) n (%)
Any treatment-emergent SAE [2, 8]: 0 (0.0) n (%)
Back pain [2, 8]: 0 (0.0) n (%)
Constipation [2, 8]: 0 (0.0) n (%)
Dizziness [2, 8]: 1 (16.7) n (%)
Dizziness postural [2, 8]: 2 (33.3) n (%)
Dry throat [2, 8]: 1 (16.7) n (%)
Dysphonia [2, 8]: 0 (0.0) n (%)
Eye irritation [2, 8]: 1 (16.7) n (%)
Headache [2, 8]: 1 (16.7) n (%)
Nausea [2, 8]: 0 (0.0) n (%)
Palpitations [2, 8]: 0 (0.0) n (%)
Presyncope [2, 8]: 0 (0.0) n (%)
Rhinitis [2, 8]: 1 (16.7) n (%)
Ventricular tachycardia [2, 8]: 0 (0.0) n (%)
Viral infection [2, 8]: 0 (0.0) n (%)
Abdominal pain [2, 9]: 1 (11.1) n (%)
Anxiety [2, 9]: 0 (0.0) n (%)
Any AE [2, 9]: 3 (33.3) n (%)
Any TEAE [2, 9]: 3 (33.3) n (%)
Any TEAE leading to death [2, 9]: 0 (0.0) n (%)
Any TEAE leading to discontinuation [2, 9]: 0 (0.0) n (%)
Any drug-related treatment-emergent SAE [2, 9]: 0 (0.0) n (%)
Any treatment-emergent SAE [2, 9]: 0 (0.0) n (%)
Back pain [2, 9]: 1 (11.1) n (%)
Constipation [2, 9]: 0 (0.0) n (%)
Dizziness [2, 9]: 1 (11.1) n (%)
Dizziness postural [2, 9]: 0 (0.0) n (%)
Dry throat [2, 9]: 0 (0.0) n (%)
Dysphonia [2, 9]: 1 (11.1) n (%)
Eye irritation [2, 9]: 0 (0.0) n (%)
Headache [2, 9]: 1 (11.1) n (%)
Nausea [2, 9]: 0 (0.0) n (%)
Palpitations [2, 9]: 0 (0.0) n (%)
Presyncope [2, 9]: 0 (0.0) n (%)
Rhinitis [2, 9]: 0 (0.0) n (%)
Ventricular tachycardia [2, 9]: 0 (0.0) n (%)
Viral infection [2, 9]: 0 (0.0) n (%)
QT prolongation (electrocardiograms) [2, 4]: no QT prolongation
changes in seated heart rate or BP [2, 4]: no clinically significant changes
subjects with a TEAE considered related to the study drug ([2]; all baxdrostat groups pooled): 6 (14.3%)
severity of TEAEs ([2]; all subjects receiving baxdrostat): mild
effect on urine free cortisol ([3]; 24 h urine collections): no meaningful effect
effect on plasma 11-deoxycortisol [3, 10]: no meaningful effect
effect on plasma cortisol (total or free) [3, 10]: no meaningful impact; also recorded: no meaningful effect
